Source: patent US6355677B1, “Adrenoleukodystrophy treatments and drug screening” (The Johns Hopkins University, priority 1998, dated 2002)

Assays:
[1] = system: human X-ALD primary fibroblasts; test: VLCFA (C24:0 and C26:0) levels in cultured cells, capillary GC; type: cell-based; conditions: for C24:0 level, Treated / C26:0 Percent Correction / C26:0 level, Treated / C24:0 Percent Correction: X-ALD human primary fibroblasts
Protocol: (§1) Cell lines derived from X-ALD patients and X-ALD mice were grown in MEM (fibroblasts) or RPMI (lymphoblastoid cells) supplemented with fetal calf serum (10%), penicillin (100 U/ml), streptomycin (100 U/ml) and glutamine (2 mM). […] Cells in the second flask were grown without drug for the same length of time and served as controls. The media were changed every 3-4 days.
(§2) For VLCFA measurements, total lipids were extracted, converted to methyl esters, purified by TLC and subjected to capillary GC analysis as described. Duplicate assays were set up independently and were assayed on different days. C24:0 β-oxidation activity of human and mouse fibroblasts and human lymphoblastoid cells was determined by measuring their capacity to degrade [1-^14C]-C24:0 fatty acid (American Radiolabeled Chemicals, St. Louis, Mo.) to water-soluble products as described. Phytanic acid oxidation was measured as described. Cells were incubated with [2,3-^3H]-phytanic acid for 24 hours, and the release of ^3H-H2O to the aqueous medium was determined (activity in pmol/hr per mg protein).

[2] = system: human X-ALD lymphoblastoid cells; test: as above; type: cell-based
Protocol: as §1, §2

[3] = system: mouse X-ALD primary fibroblasts; test: as above; type: cell-based; conditions: 5 mM; for C24:0 Percent Correction / C24:0 level, Treated / C26:0 Percent Correction / C26:0 level, Treated: X-ALD mouse primary fibroblasts
Protocol: as §1, §2

[4] = used for many years in patients; cited from earlier work
[5] = system: mouse primary fibroblasts; test: Toxicity in cultured cells; type: cell-based; conditions: data not shown
From the text: (§3) The genotypes of the X-ALD patients included midssense, nonsense, ftame shift and deletion mutations and all of the main clinical phenotypes.

[6] = system: human primary fibroblasts; test: Toxicity in cultured cells; type: cell-based; conditions: data not shown
From the text: as §3

[7] = system: human primary fibroblasts; test: Peroxisome counting by anti-SKL (PTS1) immunofluorescence; type: cell-based; conditions: 5 mM
From the text: Peroxisomes were made visible with immunofluorescence using a polyclonal antibody to the C-terminal tripeptide (SKL) peroxisome targeting signal 1 (PTS1), which is present in most peroxisomal matrix proteins. […] We counted the peroxisomes after 10 days of treatment (Table 3). Slides were scanned visually and cells categorized as having low, medium or high numbers of peroxisomes. For each cell line, the number of peroxisomes is the mean of three ‘low’, four ‘medium’ and three ‘high’ cells (Table 3). There was no difference between control cells and X-ALD cells in either the number of peroxisomes per cell or in the response to 4-PBA. […] The 2.4-fold increase in the number of peroxisomes per cell was statistically significant (P<0.0000001, two-tailed Student's t-test). Peroxisome numbers obtained with an antibody against a peroxisomal membrane protein (Pex14p) gave similar results (data not shown).
The anti-SKL (PTSI) antibody was a gift from S. Gould and the anti-Pex11α antibody was a gift from S. Mihalik. To count peroxisomes, we photographed immunofluorescence-stained cells after focusing on the cell nucleus, and determined the peroxisome number per cell with the aid of a colon counter after projecting the slides to enlarge the image.

ALDP = ALDP stabilization, immunofluorescence with anti-ALDP antibody; type: cell-based, human; conditions: X-ALD fibroblasts with destabilizing missense mutations (A626T, R660W), 5 mM for up to 10 days
[8] = between 1 mM and 5 mM, data not shown
[9] = X-ALD human lymphoblastoid cells, 5 mM, exposure 6 days
[10] = X-ALD human lymphoblastoid cells, 5 mM, exposure 10 days

With `O=C(O)CCCc1ccccc1` [4-PBA, 4-Phenyl butyrate] the “Time of treatment until C24:0 levels were normalized” value ([1]; 5 mM, human X-ALD fibroblasts) was no more than 10 days, the “C24:0 level, Treated” value ([1]; 5 mM, exposure 1 day) was 2.65 ± 0.36% of total fatty acids and the “C26:0 Percent Correction” value ([1]; 5 mM, exposure 1 day) was 2%. The “C26:0 level, Treated” value ([1]; 5 mM, exposure 1 day) was 0.51 ± 0.14% of total fatty acids, the “C24:0 Percent Correction” value ([1]; 5 mM, exposure 1 day, untreated X-ALD 0%, normal 100%) was −1% and the “C24:0 Percent Correction” value ([1]; 5 mM, exposure 6 days) was 81%. The “C24:0 level, Treated” value ([1]; 5 mM, exposure 6 days) was 1.82 ± 0.28% of total fatty acids, the “C26:0 Percent Correction” value ([1]; 5 mM, exposure 6 days) was 26% and the “C26:0 level, Treated” value ([1]; 5 mM, exposure 6 days) was 0.41 ± 0.04% of total fatty acids. For the same compound, the “C24:0 Percent Correction” value ([1]; 5 mM, exposure 12 days) was 155%, the “C24:0 level, Treated” value ([1]; 5 mM, exposure 12 days) was 1.43 ± 0.34% of total fatty acids and the “C26:0 Percent Correction” value ([1]; 5 mM, exposure 12 days) was 33%. For the same compound, the “C26:0 level, Treated” value ([1]; 5 mM, exposure 12 days) was 0.31 ± 0.06% of total fatty acids, the “C24:0 Percent Correction” value ([1]; 5 mM, exposure 16 days) was 96% and the “C24:0 level, Treated” value ([1]; 5 mM, exposure 16 days) was 1.69 ± 0.27% of total fatty acids. For the same compound, the “C26:0 Percent Correction” value ([1]; 5 mM, exposure 16 days) was 38%, the “C26:0 level, Treated” value ([1]; 5 mM, exposure 16 days) was 0.28 ± 0.03% of total fatty acids and the “C24:0 Percent Correction” value ([1]; 5 mM, exposure 22 days) was 128%. The “C24:0 level, Treated” value ([1]; 5 mM, exposure 22 days) was 1.52 ± 0.14% of total fatty acids, the “C26:0 Percent Correction” value ([1]; 5 mM, exposure 22 days) was 47% and the “C26:0 level, Treated” value ([1]; 5 mM, exposure 22 days) was 0.27 ± 0.04% of total fatty acids. For the same compound, the “Effect on VLCFA levels over concentration range” value [1, 8] was “dose-dependent decrease”, the “Time of treatment until C24:0 and C26:0 levels were normalized” value ([2]; 5 mM, human lymphoblastoid cells) was no more than 10 days and the “C24:0 level, Treated” value [2, 9] was 0.65 ± 0.17% of total fatty acids. For the same compound, the “C26:0 Percent Correction” value [2, 9] was 71%, the “C26:0 level, Treated” value [2, 9] was 0.11 ± 0.05% of total fatty acids and the “C24:0 Percent Correction” value [2, 10] was 161%. For the same compound, the “C24:0 level, Treated” value [2, 10] was 0.54 ± 0.16% of total fatty acids, the “C26:0 Percent Correction” value [2, 10] was 90% and the “C26:0 level, Treated” value [2, 10] was 0.09 ± 0.05% of total fatty acids. For the same compound, the “Effect on VLCFA levels over concentration range” value [2, 8] was “dose-dependent decrease”, the “Time of treatment until C24:0 and C26:0 levels were normalized” value ([3]; mouse fibroblasts) was no more than 10 days and the “C24:0 Percent Correction” value ([3]; exposure 5 days) was 115%. The “C24:0 level, Treated” value ([3]; exposure 5 days) was 1.10 ± 0.15% of total fatty acids, the “C26:0 Percent Correction” value ([3]; exposure 5 days) was 92% and the “C26:0 level, Treated” value ([3]; exposure 5 days) was 0.07 ± 0.03% of total fatty acids. The “C24:0 Percent Correction” value ([3]; exposure 9 days) was 152%, the “C24:0 level, Treated” value ([3]; exposure 9 days) was 0.87 ± 0.04% of total fatty acids and the “C26:0 Percent Correction” value ([3]; exposure 9 days) was 100%. For the same compound, the “C26:0 level, Treated” value ([3]; exposure 9 days) was 0.05 ± 0.01% of total fatty acids, the Side effects [4] was “few, if any, side effects” and the Toxic concentration [5] was “exceeding 7.5 mM”. For the same compound, the Toxic concentration [6] was “exceeding 7.5 mM”, the “Increase in number of peroxisomes per cell” value ([7]; 10 days) was 2.4 fold and the “Peroxisomes per cell after exposure” value ([7]; 10 days, five X-ALD and four control cell lines combined, 416±27 before exposure) was 1014±108 peroxisomes per cell. For the same compound, the “Increase in peroxisome number” value ([7]; human X-ALD primary fibroblasts, 8 days) was “approximately twofold” and the “Detectable ALDP after treatment” value (ALDP) was “did not result in detectable levels of ALDP”.
